Measured values reported in US10519108B2, “Inhibitors of retinaldehyde dehydrogenases and methods of use” (The Board of Regents of the University of Oklahoma, priority 2015, dated 2019).

Legend:
[1] = test system: spermatogenesis; settings: cited from earlier work
[2] = target: T1, aldehyde dehydrogenase 2 (ALDH2) (Homo sapiens, UniProt P05091); assay: ALDH2 activity by NADH synthesis, absorbance at 340 nm; format: biochemical
T1 sequence (P05091 18-517): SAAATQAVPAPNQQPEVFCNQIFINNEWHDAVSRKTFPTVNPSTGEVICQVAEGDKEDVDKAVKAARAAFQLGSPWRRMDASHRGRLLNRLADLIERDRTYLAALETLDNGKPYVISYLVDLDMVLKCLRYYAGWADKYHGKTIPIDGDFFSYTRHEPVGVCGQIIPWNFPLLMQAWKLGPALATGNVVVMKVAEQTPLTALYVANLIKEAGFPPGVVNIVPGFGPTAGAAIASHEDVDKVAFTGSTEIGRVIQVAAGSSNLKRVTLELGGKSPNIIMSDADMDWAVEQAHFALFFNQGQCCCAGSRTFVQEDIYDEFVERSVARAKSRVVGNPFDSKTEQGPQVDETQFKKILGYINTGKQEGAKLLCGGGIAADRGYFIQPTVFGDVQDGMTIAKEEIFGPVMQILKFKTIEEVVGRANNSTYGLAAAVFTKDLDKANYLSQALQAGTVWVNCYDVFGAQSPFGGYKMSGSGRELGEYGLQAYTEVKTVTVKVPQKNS

[3] = target: T2, RALDH3 (Homo sapiens, UniProt P47895); assay: RALDH3 activity by NADH synthesis, fluorescence-based NADH sensor; format: biochemical; settings: in the presence of DAR
T2 sequence (P47895 1-512): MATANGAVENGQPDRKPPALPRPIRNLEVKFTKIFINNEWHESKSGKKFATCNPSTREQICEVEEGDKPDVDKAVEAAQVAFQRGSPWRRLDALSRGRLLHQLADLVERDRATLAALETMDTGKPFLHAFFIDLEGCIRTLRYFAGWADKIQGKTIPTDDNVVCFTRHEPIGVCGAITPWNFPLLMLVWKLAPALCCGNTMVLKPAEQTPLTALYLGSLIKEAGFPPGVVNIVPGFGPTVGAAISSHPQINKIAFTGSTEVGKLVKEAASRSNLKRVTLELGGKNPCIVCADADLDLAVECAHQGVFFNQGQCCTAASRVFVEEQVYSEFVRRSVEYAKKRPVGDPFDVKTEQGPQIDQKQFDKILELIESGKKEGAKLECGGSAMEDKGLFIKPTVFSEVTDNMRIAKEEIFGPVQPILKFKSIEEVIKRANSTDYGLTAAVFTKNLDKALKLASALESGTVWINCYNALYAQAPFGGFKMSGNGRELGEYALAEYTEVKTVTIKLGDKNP

[4] = target: T3, retinaldehyde dehydrogenase 1 (RALDH1) (Homo sapiens, UniProt P00352); assay: RALDH1 activity by NADH synthesis, fluorescence-based NADH sensor; format: biochemical; settings: in the presence of DAR
T3 sequence (P00352 1-501): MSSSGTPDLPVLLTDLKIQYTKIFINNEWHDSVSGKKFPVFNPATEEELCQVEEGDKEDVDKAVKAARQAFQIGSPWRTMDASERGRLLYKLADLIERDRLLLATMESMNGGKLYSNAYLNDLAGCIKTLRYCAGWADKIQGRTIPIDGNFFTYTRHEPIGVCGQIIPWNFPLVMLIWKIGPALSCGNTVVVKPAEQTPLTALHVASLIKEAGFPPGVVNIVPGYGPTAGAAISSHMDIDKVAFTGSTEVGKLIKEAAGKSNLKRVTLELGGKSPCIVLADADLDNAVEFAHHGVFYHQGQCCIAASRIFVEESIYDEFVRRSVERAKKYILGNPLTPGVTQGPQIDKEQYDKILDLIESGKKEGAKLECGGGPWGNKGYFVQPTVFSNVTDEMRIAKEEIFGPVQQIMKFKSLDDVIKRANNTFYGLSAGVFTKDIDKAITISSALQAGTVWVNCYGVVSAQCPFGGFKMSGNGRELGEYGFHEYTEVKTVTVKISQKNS

[5] = target: T4, RALDH2 (Homo sapiens, UniProt O94788); assay: RALDH2 activity by NADH synthesis, fluorescence-based NADH sensor; format: biochemical
T4 sequence (O94788 1-518): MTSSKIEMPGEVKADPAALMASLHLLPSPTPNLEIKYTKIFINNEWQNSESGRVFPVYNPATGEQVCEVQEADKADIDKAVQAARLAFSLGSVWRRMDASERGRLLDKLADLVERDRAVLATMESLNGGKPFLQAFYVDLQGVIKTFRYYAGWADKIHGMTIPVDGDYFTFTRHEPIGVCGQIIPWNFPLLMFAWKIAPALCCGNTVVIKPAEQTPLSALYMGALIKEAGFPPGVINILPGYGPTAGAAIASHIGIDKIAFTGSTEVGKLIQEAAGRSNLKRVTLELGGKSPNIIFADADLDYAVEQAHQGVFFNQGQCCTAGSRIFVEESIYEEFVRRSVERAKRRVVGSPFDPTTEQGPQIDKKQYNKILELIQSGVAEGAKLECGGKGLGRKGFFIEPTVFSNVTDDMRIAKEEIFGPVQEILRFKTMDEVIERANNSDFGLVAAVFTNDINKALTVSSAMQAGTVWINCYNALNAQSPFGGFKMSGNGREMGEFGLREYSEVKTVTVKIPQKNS

[6] = test system: RALDH; assay: RALDH activity in recovering choroid tissue homogenates, atRA synthesis by HPLC; format: biochemical; settings: choroid cytosol fractions, DAR 5-25 μM, NAD 4 mM, all-trans-retinaldehyde 25 μM, 37° C. 30 min
Experimental: RALDH activity was assessed in choroid tissue homogenates in the presence of DAR (5-25 μM), or vehicle (EtOH) by measuring all-trans-retinoic acid (atRA) synthesis. Choroid cytosol fractions were incubated in the presence of cofactor NAD (4 mM) and all-trans-retinaldehyde (25 μM) at 37° C. for 30 min. Following incubation, retinoids were extracted and quantified using HPLC.

activity of RALDH3 assessed by NADH synthesis [3]	activity of RALDH1 assessed by NADH synthesis [4]	IC50 ([5]; NADH synthesis, 95% C.I.=41.0-66.4 nM) [µM]	activity of RALDH2 assessed by NADH synthesis ([5]; in the presence of DAR, fluorescence-based NADH sensor)	Compound	inhibition of spermatogenesis ([1]; human males)	reactions in patients who consumed alcohol ([1]; human, alcohol consumed while taking compound, due to inhibition of ALDH2)	effect on ALDH2 assessed by NADH synthesis [2]	retinoic acid (atRA) synthesis by RALDH [6]
–	–	–	–	O=C(NCCCCCCCCNC(=O)C(Cl)Cl)C(Cl)Cl [WIN-18446]	potent, reversible inhibitor of spermatogenesis	violent “disulfiram” reactions	non-specific ALDH2 inhibitor	–
effectively inhibits	effectively inhibits	0.0522	effectively inhibits	CC1=C(/C=C/C(C)=C/C=C/C(C)=C/C(=O)C(Cl)Cl)C(C)(C)CCC1 [DAR, (3E,5E,7E,9E)-1,1-dichloro-4,8-dimethyl-10-(2,6,6-trimethylcyclohex-1-en-1-yl)deca-3,5,7,9-tetraen-2-one]	–	–	does not significantly inhibit	significantly inhibited
